Reference: PMC5547389, “Structure-activity relationships and molecular docking studies of chromene and chromene based azo chromophores: A novel series of potent antimicrobial and anticancer agents” (EXCLI Journal, 2017)
≈ marks a conversion by molar mass, not a printed value.

How the values were obtained:
[1] = tested on: Human colon carcinoma (HCT-116); experiment: Cytotoxic screening; type: cell-based; settings: Homo sapiens, HCT-116; read-out: IC50 HCT-116
How it was run: (§1)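 Read-out is crystal violet staining (the text also names MTT), lysis in 33 % acetic acid, A590, with untreated cells as 100 %. IC50 was estimated graphically from survival curves.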

[2] = tested on: human breast adenocarcinoma (MCF-7); experiment: Cytotoxic screening; type: cell-based; settings: Homo sapiens, MCF7; read-out: IC50 MCF-7
How it was run: as §1

[3] = tested on: human hepatocellular carcinoma (HEPG-2); experiment: Cytotoxic screening; type: cell-based; settings: HepG2, read-out: IC50 HepG-2
How it was run: as §1

[4] = tested on: Syncephalastrum racemosum (RCMB 05922); experiment: Well diffusion assay (inhibition zone); type: cell-based; settings: RCMB05922, 5 mg/mL in DMSO, fungi, read-out: Inhibition Zone (IZ) diameter, S.R
How it was run: (§2)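 Agar well diffusion with 10 mm wells, nutrient agar for bacteria and malt extract agar for fungi. Plates were incubated 24-48 h at 37 °C for bacteria or 28 °C for fungi. Inhibition zone diameters were measured in mm, in triplicate.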

[5] = tested on: Escherichia coli (RCMB 010052); experiment: Well diffusion assay (inhibition zone); type: cell-based; settings: RCMB010052, 5 mg/mL in DMSO, Gm-ve, read-out: Inhibition Zone (IZ) diameter, E.C
How it was run: as §2

[6] = tested on: Geotricum candidum (RCMB 05097); experiment: Well diffusion assay (inhibition zone); type: cell-based; settings: 5 mg/mL in DMSO; fungi; read-out: Inhibition Zone (IZ) diameter, G.C
How it was run: as §2

[7] = tested on: Bacillus subtilis (RCMB 010067); experiment: Well diffusion assay (inhibition zone); type: cell-based; settings: RCMB010067, 5 mg/mL in DMSO, Gm+ve, read-out: Inhibition Zone (IZ) diameter, B.S
How it was run: as §2

[8] = tested on: Streptococcus pneumoniae (RCMB 010010); experiment: Well diffusion assay (inhibition zone); type: cell-based; settings: RCMB010010, 5 mg/mL in DMSO, Gm+ve, read-out: Inhibition Zone (IZ) diameter, S.P
How it was run: as §2

[9] = tested on: Aspergillus fumigatus (RCMB 02568); experiment: Well diffusion assay (inhibition zone); type: cell-based; settings: RCMB02568, 5 mg/mL in DMSO, fungi, read-out: Inhibition Zone (IZ) diameter, A.F
How it was run: as §2

[10] = tested on: Gm+ve bacteria, Gm-ve bacteria, fungi; experiment: Well diffusion assay, statements over groups of microorganisms; type: cell-based
Method: The microorganism inoculums were uniformly spread using sterile cotton swabs on a sterile Petri dish malt extract agar (for fungi) and nutrient agar (for bacteria). One hundred cubic millimeters of each sample was added to each well (10 mm-diameter holes were cut in the agar gel, 20 mm apart from one another). The systems were incubated for 24-48 h at 37 °C (for bacteria) and at 28 °C (for fungi). After incubation, the microorganism growth was observed. Inhibition zones of the bacterial and fungal growth were measured in millimeters. Tests were performed in triplicate (Cappuccino and Sherman, 1999[12]; Vanden Berghe and Vlientinck, 1991[62]).
All the newly synthesized compounds described in this report were screened for both antibacterial and antifungal activity via the reported agar diffusion well method (Vanden Berghe and Vlietinck, 1991[62]). The inhibition zones and minimum inhibitory concentrations (MIC) were determined by the serial dilution method (Cappuccino and Sherman, 1999[12]). […]

Row | Structure (SMILES) | melting point [°C] | IC50 [1] [µg/mL] | IC50 [2] [µg/mL] | IC50 [3] [µg/mL] | zone of inhibition at 5000 µg/mL [4] [mm] | zone of inhibition at 5000 µg/mL [5] [mm] | zone of inhibition at 5000 µg/mL [6] [mm] | zone of inhibition at 5000 µg/mL [7] [mm] | zone of inhibition at 5000 µg/mL [8] [mm] | zone of inhibition at 5000 µg/mL [9] [mm] | IZ range against Gm+ve, Gm-ve bacteria, and fungi [10]
1 | COc1ccc(C2C(C#N)=C(N)Oc3c2ccc2c(N)cccc32)cc1 (stereo not shown) [7b, 2,7-Diamino-4-(4-methoxy-phenyl)-4H-benzo[h]chromene-3-carbonitrile] | 185 | 44.1 (≈ 128 µM) | 25.9 (≈ 75.4 µM) | 28.2 (≈ 82.1 µM) | 20.3 | 22.1 | 22.6 | 23.2 | 22.4 | 21.6 | 18-23 mm
2 | N#CC1=C(N)Oc2c(ccc3c(N)cccc23)C1c1c(F)cc(F)cc1F (stereo not shown) [7d, 2,7-Diamino-4-(2,4,6-trifluoro-phenyl)-4H-benzo[h]chromene-3-carbonitrile] | 235 | 61.3 (≈ 167 µM) | 54 (≈ 147 µM) | 52.3 (≈ 142 µM) | 18.1 | 20.8 | 22.4 | 22.3 | 21.6 | 20.3 | 18-23 mm
